Test results published in publication PMC9321829 (Chembiochem, 2022).

Target: T1, TAL amo (Aeromonas molluscorum, UniProt R1H7C8)
T1 sequence (R1H7C8 1-531): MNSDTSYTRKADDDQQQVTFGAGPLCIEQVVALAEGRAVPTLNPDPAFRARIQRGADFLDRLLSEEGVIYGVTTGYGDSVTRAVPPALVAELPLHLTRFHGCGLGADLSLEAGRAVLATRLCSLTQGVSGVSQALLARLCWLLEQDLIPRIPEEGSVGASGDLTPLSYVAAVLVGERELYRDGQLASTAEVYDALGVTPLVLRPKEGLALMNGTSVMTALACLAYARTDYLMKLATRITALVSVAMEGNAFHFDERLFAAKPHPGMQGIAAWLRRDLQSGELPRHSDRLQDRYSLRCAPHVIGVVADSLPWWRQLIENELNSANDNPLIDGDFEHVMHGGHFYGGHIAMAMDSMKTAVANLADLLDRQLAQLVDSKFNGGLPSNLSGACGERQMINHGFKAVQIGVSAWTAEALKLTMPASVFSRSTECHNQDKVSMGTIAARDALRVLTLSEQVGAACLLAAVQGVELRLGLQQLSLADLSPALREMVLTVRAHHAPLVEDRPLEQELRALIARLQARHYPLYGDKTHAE
Test: UV assay, cinnamic acid formation at […] nm
Type: biochemical
Conditions: 10 mM substrate, 20 mM PBS pH 7.5, 25 °C

## N[C@@H](Cc1ccccc1)C(=O)O [L-phenylalanine]
  UV assay, cinnamic acid formation at 290 nm: They presented a slight activity towards L‐phenylalanine.
